Legend:
EHMT1 = molecular target: T1, EHMT1 (Homo sapiens, UniProt Q9H9B1); test: EHMT1 enzyme assay on peptide substrate (EHMT1 PEP); type: biochemical; settings: Table III; read-out: EHMT1 PEP (IC50 μM)
T1 sequence (Q9H9B1 1-1298): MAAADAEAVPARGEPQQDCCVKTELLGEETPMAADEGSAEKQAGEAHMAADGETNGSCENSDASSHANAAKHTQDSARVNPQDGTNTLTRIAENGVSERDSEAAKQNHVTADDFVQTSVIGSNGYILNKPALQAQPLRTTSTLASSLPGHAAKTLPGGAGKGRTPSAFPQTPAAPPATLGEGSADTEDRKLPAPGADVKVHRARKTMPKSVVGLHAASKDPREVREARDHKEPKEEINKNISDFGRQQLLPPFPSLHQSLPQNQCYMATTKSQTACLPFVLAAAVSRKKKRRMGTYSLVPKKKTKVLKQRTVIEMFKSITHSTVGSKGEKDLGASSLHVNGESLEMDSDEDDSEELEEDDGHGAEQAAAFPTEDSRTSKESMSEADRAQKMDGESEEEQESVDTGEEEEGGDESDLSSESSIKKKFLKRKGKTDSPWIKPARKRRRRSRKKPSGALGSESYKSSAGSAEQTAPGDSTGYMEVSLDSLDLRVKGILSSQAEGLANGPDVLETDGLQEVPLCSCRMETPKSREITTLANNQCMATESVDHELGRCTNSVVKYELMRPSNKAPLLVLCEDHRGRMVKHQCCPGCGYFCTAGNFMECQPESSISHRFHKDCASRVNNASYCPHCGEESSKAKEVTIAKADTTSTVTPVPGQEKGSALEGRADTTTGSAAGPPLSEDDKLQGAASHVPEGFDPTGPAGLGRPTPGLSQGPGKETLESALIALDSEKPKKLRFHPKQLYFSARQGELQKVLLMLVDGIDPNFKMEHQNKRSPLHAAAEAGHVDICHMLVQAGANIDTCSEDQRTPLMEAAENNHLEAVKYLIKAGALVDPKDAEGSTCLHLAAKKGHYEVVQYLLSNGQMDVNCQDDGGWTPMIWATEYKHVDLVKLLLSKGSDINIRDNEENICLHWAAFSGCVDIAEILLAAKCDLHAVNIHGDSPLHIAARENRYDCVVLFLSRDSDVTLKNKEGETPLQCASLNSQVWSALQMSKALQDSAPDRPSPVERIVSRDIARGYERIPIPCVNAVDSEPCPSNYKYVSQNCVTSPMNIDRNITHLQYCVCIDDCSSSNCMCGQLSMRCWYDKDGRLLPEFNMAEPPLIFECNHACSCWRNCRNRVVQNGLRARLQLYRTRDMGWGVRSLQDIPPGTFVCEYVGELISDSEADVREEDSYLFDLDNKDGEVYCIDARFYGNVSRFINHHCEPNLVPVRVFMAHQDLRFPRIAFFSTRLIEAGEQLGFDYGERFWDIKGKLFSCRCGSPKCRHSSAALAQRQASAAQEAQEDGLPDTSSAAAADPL

human EHMT2 913-1193 = molecular target: T2, human EHMT2 913-1193 (Homo sapiens, UniProt Q96KQ7); test: EHMT2 enzyme assay on histone peptide substrate (EHMT2 PEP); type: biochemical; settings: Table III; read-out: EHMT2 PEP (IC50 μM)
T2 construct: recombinant purified human EHMT2 913-1193, Viva; purchased Viva
T2 sequence (Q96KQ7 913-1193): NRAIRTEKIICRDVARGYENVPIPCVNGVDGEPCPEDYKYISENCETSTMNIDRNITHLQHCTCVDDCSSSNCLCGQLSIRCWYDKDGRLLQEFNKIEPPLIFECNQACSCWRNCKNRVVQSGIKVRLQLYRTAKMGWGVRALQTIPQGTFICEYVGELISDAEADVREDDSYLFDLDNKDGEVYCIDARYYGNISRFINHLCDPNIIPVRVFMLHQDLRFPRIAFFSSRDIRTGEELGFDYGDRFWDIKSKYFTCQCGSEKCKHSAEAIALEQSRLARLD
Outline: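 Compounds were tested as 3-fold dilutions, 10 points from a 50 μM final top (2% DMSO), after 30-min preincubation with 0.031 nM enzyme in Bicine buffer pH 7.5. Transfer of ^3H-methyl from ^3H-SAM to biotinylated histone peptide ran 60 min at room temperature and was detected by streptavidin Flashplate scintillation.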

Structure (SMILES)	IC50 (EHMT1) [µM]	IC50 (human EHMT2 913-1193) [µM]
CNc1cc(OC)nc(Nc2ccc(OC)c(OCCCN3CCCC3)c2)n1 [Compound 261, 6-methoxy-N^2-(4-methoxy-3-(3-(pyrrolidin-1-yl)propoxy)phenyl)-N^4-methylpyrimidine-2,4-diamine]	> 10	> 10
CNc1ccnc(Nc2ccc3c(c2)C(=O)N(CCN2CCCC2)CC3)n1 [Compound 264, 7-((4-(methylamino)pyrimidin-2-yl)amino)-2-(2-(pyrrolidin-1-yl)ethyl)-3,4-dihydroisoquinolin-1(2H)-one]	> 10	> 10
COc1ccc(Nc2cccc3[nH]ccc23)cc1OCCCN1CCCC1 [Compound 265, N-(4-methoxy-3-(3-(pyrrolidin-1-yl)propoxy)phenyl)-1H-indol-4-amine]	> 10	> 10
COc1ccc(Nc2nccc3[nH]ccc23)cc1OCCCN1CCCC1 [Compound 266, N-(4-methoxy-3-(3-(pyrrolidin-1-yl)propoxy)phenyl)-1H-pyrrolo[3,2-c]pyridin-4-amine]	1 to 10	1 to 10
CNc1nccc(Nc2ccc(OC)c(OCCCN3CCCC3)c2)n1 [Compound 355]	< 0.1	< 0.1
CNc1cc(C)nc(Nc2ccc(F)c(OCCCN3CCCC3)c2)n1 [Compound 356]	> 10	> 10
CNc1nc(Nc2ccc(OC)c(OCCCN3CCCC3)c2)ncc1C#N [Compound 357]	> 10	> 10
CNc1nc(Nc2ccc(OC)c(OCCCN3CCCC3)c2)ncc1C(F)(F)F [Compound 358]	> 10	> 10
CNc1ncc(C(F)(F)F)c(Nc2ccc(OC)c(OCCCN3CCCC3)c2)n1 [Compound 359]	> 10	> 10
CNc1nc(Nc2ccc(OC)c(OCCCN3CCCC3)c2)nc(C)c1F [Compound 360]	0.1 to 1	0.1 to 1
CNc1ccnc(Nc2ccc(OC)c(OCCN3CCOCC3)c2)n1 [Compound 361]	1 to 10	1 to 10
CNc1cc(C(F)(F)F)nc(Nc2ccc(OC)c(OCCCN3CCCC3)c2)n1 [Compound 362]	> 10	> 10
CNc1ccnc(Nc2ccc3c(c2)N(C(=O)CCN(C)C)CC3)n1 [Compound 363]	> 10	> 10
CCc1cc(NC)nc(Nc2ccc(OC)c(OCCCN3CCCC3)c2)n1 [Compound 364]	< 0.1	< 0.1
COc1ccc(Nc2nccc(CNC3CCOCC3)n2)cc1OCCCNc1ccccc1 [Compound 365]	> 10	> 10
COc1ccc(Nc2cnnc(NCC3CCN(C(C)=O)CC3)c2)cc1OCCCN1CCCC1 [Compound 366]	1 to 10	1 to 10
COc1ccc(Nc2nccc(NCC3CCOCC3)n2)cc1OC1CC2(C1)CN(C)C2 [Compound 367]	> 10	> 10
CNc1ccnc(Nc2ccc(F)c(OCCCN3CCCC3)c2)n1 [Compound 368]	> 10	> 10
COc1ccc(Nc2nccc(N)n2)cc1OCCCN1CCCC1 [Compound 369]	0.1 to 1	0.1 to 1
CNc1cnnc(Nc2ccc(OC)c(OCCCN3CCCC3)c2)c1 [Compound 370]	0.1 to 1	0.1 to 1
CNc1cncc(Nc2ccc(OC)c(OCCCN3CCCC3)c2)n1 [Compound 371]	1 to 10	1 to 10
